Square brackets hold non-standard residues; d marks the D form. Peptide text beside a SMILES is read from it. * marks the point of attachment. PhAc = O=C(Cc1ccccc1)*
Tests used:
[1] = Retention of potency in PBS containing 10 percent mouse or human serum; assay type: in vitro ADME; details: 24 hours in PBS at 7.2-7.4 containing 10 percent mouse or human serum
BALB/c mice = assay: Adoptive transfer delayed type hypersensitivity in mice (oxazolone); assay type: in vivo, mouse
Protocol: An adoptive transfer delayed-type hypersensitivity murine model has been developed using splenic T cells primed to oxazolone. This model is described in Elices et al., Clin. Exp. Rheum., 11(Suppl. 8):577-580 (1993), whose procedures were followed here.
Thus, BALB/c mice were shaved on the belly and painted (50 μl on the belly and 5 μl on each paw) with three percent oxazolone in acetone/olive oil (4:1) at days zero and 1. At day 5, the mice were sacrificed, their spleens removed, and splenic T cells were obtained via nylon wool columns.
Normal saline or saline containing 25×10^6 /animal of the oxazolone-immune T cells were separately injected into naive mice. The mice were then challenged by painting 10 μl of 2 percent oxazolone onto one ear each. All procedures were carried out under sterile conditions and in endotoxin-free buffers.
Prior to challenge or saline injection, the mice were implanted with pumps that subcutaneously administered normal saline, normal saline containing the compound, Compound ID No. 896.52, N-phenylacetyl-Leu-Asp-Phe-D-Pro-NH2, or normal saline containing a compound with a scrambled sequence continually at 6 mg/kg/day for a 24-hour time period. The swelling diameter at the site of challenge or saline injection was measured with a microcaliper 24 hours thereafter.
An expanded study was carried out as described above except that a scrambled compound control was not used as a control for further inhibitor compounds of Table 1 with larger groups of mice. Statistical analyses were carried out versus injection of vehicle alone.

[2] = system: New Zealand white rabbits; assay: Rabbit heterotopic cardiac allograft model; assay type: in vivo
Excerpt: New Zealand white female rabbits (Charles River Lab., Saint Laurent, Quebec), between 3.5 and 4 kg underwent heterotopic cardiac transplant following an experimental protocol previously described [Alonso et al., Am. J. Pathol., 87:415-442 (1977); Clausell et al., Circulation, 89:2768-2779 (1994)]. The animals were unselected to favor an HLA-mismatch, the host rabbits were Pasteurella-free and the donors, outbred animals. Both host and donor rabbits were fed Purina 5321-0.5 percent cholesterol diet (Research Diets Inc., New Brunswick, N.J.), a strategy that has proven useful in accelerating the process of allograft arteriopathy [Alonso et al., Am, J. Pathol., 87:415-442 (1977)]. The diet was commenced four days prior to the transplant and continued in the recipient of the transplant until the completion of the experimental period.
The technique of heterotopic cardiac transplantation has been previously described [Clausell et al., Circulation, 89:2768-2779 (1994)]. Briefly, a vertical incision was performed in the anterior aspect of the neck of the recipient rabbit and the left common carotid artery and the ipsilateral external jugular vein were isolated. The cardiac allograft was placed in the neck by anastomosing the aorta end-to-side to the recipient's carotid artery and the pulmonary end-to-side to the recipient's external jugular vein, following a total period of ischemia for the donor hearts of approximately 30 minutes. Postoperative care was in compliance with the Principles of Laboratory Animal Care formulated by the Canadian National Society for Medical Research.
Beginning the day of the transplant, the animals were randomized and treated with either scrambled compound (control group) at 1 mg/kg s.c. or the inhibitor compound at 1 mg/kg s.c. The doses of the compounds were empirically extrapolated to the in vivo model based on preliminary in vitro studies, of Table 1. No other immunosuppression therapy was administered. The grafts were monitored daily by palpation and maintained for 7 to 8 days, a previously described endpoint that was associated with myocardial rejection (impaired cardiac contractility) and development of the allograft arteriopathy in this model [Clausell et al., Circulation, 89:2768-2779 (1994)]. A total of fourteen animals were studied in the control (n=7) and treated (n=7) groups.
The animals were sacrificed using a lethal dose of euthanol (480 mg i.v.) (MTC Pharmaceutical, Cambridge, ON), host and donor hearts were removed, and the coronary arteries were perfused with saline through the aorta, followed by light fixation by perfusion with 2 percent paraformaldehyde (Sigma, St, Louis, Mo.). […] Different sections of the hearts were either saved in 10 percent formalin (BDH Inc., Toronto, ON) for light microscopy studies or immediately frozen in O.T.C. Compound Tissue Tek (Miles Inc., Elkart, Ind.) for specific immunohistochemistry studies.
Three different paraffin-embedded tissue sections from host and donor hearts from both control and treated rabbits were stained by the Movat pentachrome method for light microscopy. Morphometric analysis was performed using a Zeiss microscope attached to a computer-generated video analysis system (Perceptics Inc., NuVision software), as described in Clausell et al., Circulation, 89:2768-2779 (1994). The number of vessels with intimal lesions were counted in all three heart sections from each animal studied and are expressed as a percentage of the total vessel number.
In the host hearts, 999 vessels in the control group and 1054 vessels in the treated group were analyzed. In the donor hearts, 827 vessels in the control group and 617 vessels in the treated group were analyzed. To determine the severity of intimal thickening, the diameter of each traceable vessel in all three sections was measured and the coronary arteries were categorized as small (diameter <100 μm), medium (diameter >100<500 μm) and large (diameter >500 μm). […]

[3] = system: Porcine peripheral blood lymphocytes; assay: In vitro porcine allograft model: transendothelial lymphocyte migration; assay type: cell-based; details: 10 μg/ml in the medium; IL-1β-stimulated SMC
Protocol: A similar study was carried out in vitro using porcine coronary artery endothelial cells (EC; as are present in the IEL) and smooth muscle cells (SMC; as are present in the medial layer of the artery). The two cell types were cultured using a membrane transwell system, with the SMC on the bottom layer in M-199 medium (Gibco Labs.). The SMC were stimulated with 100 ng/ml of interleukin-1β (IL-1β) for 24 hours prior to the start of the assay. Porcine peripheral blood lymphocytes were separated by Ficoll-Hypaque, radiolabeled and incubated overnight (about 18 hours) on the EC.

SJL/J mice = assay: Experimental autoimmune encephalomyelitis in mice; assay type: in vivo; details: 1 mg/mouse i.p. at days 8 and 9; FIG. 6; versus control compound
Protocol: EAE was induced in female SJL/J mice (8 to 14 weeks old) by immunization on day zero with 50 μg of a compound corresponding to positions 139-151 of PLP emulsified in a 1:1 mixture of PBS and complete Freund's adjuvant (CFA). Each mouse was injected with 0.2 ml of the adjuvant emulsion subcutaneously (s.c.) at two sites in the hind flank. All mice received 10^7 killed Bordetella pertussis units in 100 μl were injected intravenously 24 to 72 hours later.
Mice were observed daily, beginning at day 8 for clinical signs of EAE, and disease was scored on a scale of 0-5 as: 0=no disease; 1=floppy tail; 2=moderate hind limb weakness; 3=paraparesis; 4=paraplegis with moderate forelimb weakness; 5=qualdriplegis or premoribund state.
The inhibitor compound, Compound ID No. 896.52, N-phenylacetyl-Leu-Asp-Phe-D-Pro-NH2 was administered intraperitoneally at 1 mg/mouse in 0.2 ml of incomplete Freund's adjuvant at days 8 and 9. A compound having a scrambled sequence [N-phenylacetyl-Asp-Leu-Phe-D-Pro-NH2 ] was similarly administered to serve as a control.
Summed or averaged scores for clinical signs were plotted vs. time. The area under the resulting curves was calculated between day 8 and day 35 to calculate percentage inhibition of EAE by an inhibitor compound. The percent inhibition was calculated as follows:
[…]

asthmatic sheep = assay: Treatment of asthmatic sheep (Ascaris suum antigen, crossover); assay type: in vivo; details: nebulized 1 mg/kg; FIG. 7
Protocol: Six asthmatic sheep were treated in a double blind cross-over study. […] This study was carried out generally as described in Abraham et al., J. Clin. Invest., 93:776-787 (1994).
The inhibitor compound used here was Compound ID No. 896.52, N-phenylacetyl-Leu-Asp-Phe-D-Pro-NH2, with a control compound that comprised the previously described compound having the same residues in a scrambled sequence. The vehicle for the nebulized compounds was phosphate-buffered saline. The compounds were administered at a dose of 1 mg/kg each, twice a day for three days prior to challenge, as well as 0.5 hours prior to and four hours post challenge on day 4. Because this was a crossover study, each animal received one or the other treatment, followed by a rest and then the other treatment. Each animal therefore served as its own control.
Post challenge airway responsiveness was also assayed. Here, specific lung resistance, SRL, returned to baseline values 24 hours after challenge, however, the sheep were hyperresponsive to inhaled carbachol at that time.

## CC(C)C[C@H](NC(=O)Cc1ccccc1)C(=O)N[C@@H](CC(=O)O)C(=O)N[C@@H](Cc1ccccc1)C(=O)N1CCC[C@@H]1C(N)=O [896.52, N-phenylacetyl-Leu-Asp-Phe-D-Pro-NH2] (PhAc-LDF[dP]-NH2)
[1]
  loss of potency in serum: no loss of potency
BALB/c mice; expanded study, versus vehicle alone
  Percent Inhibition (post-challenge swelling): 36%
BALB/c mice; initial study, 6 mg/kg/day s.c. pump, 24-hour, FIG. 5
  reduction of inflammation (swelling diameter at challenge site): reduced this type of CS-1/VLA-4-mediated immunoinflammation
[2]; donor heart, 1 mg/kg s.c.
  Vessel Intimal Thickening: Percent of Vessels: 35%
  Vessel Intimal Thickening: Severity (Percent of Vessel area): 16%
[2]; rabbit own host heart
  Baseline of incidence of intimal thickening: 12%
  Baseline of severity of intimal thickening: 12%
[3]
  reduction of transendothelial lymphocyte migration: about 30%
SJL/J mice
  clinical signs of EAE: marked improvement in clinical signs
Asthmatic sheep
  change from baseline specific lung resistance (SRL) on challenge: less of a change from baseline specific lung resistance
